Like-named read-outs stand apart in the source and are kept apart here. Square brackets hold non-standard residues; d marks the D form. Ends that are not written are not given here. Peptide text beside a SMILES is read from it. Nspe(4-Br) = C[C@H](NCC(=O)O)c1ccc(Br)cc1; N(tridecyl)Gly = CCCCCCCCCCCCCNCC(=O)O; Nspe = C[C@H](NCC(=O)O)c1ccccc1; Nlys = NCCCCNCC(=O)O
Tests used:
C. auris CBS12373 = test: Broth microdilution MIC; assay type: cell-based, Candida auris
[1] = test system: ESKAPEE pathogens (all bacteria); test: Geometric mean MIC, therapeutic index and selectivity ratio, all bacteria; assay type: cell-based; settings: for Geometric mean MIC, all bacteria: across the 23 ESKAPEE strains
Description: (§1) Briefly, bacteria were suspended in cation-adjusted Mueller–Hinton broth (CAMHB; Oxoid, UK) for antibiotics, or MHB (Oxoid, UK) for peptidomimetics to obtain 5 × 10^5 colony forming unit (CFU) ml^−1. […] Positive controls contained only microbes, and blanks contained only media. Microbial suspensions (100 µl) were added to wells, plates wrapped, and incubated at 37°C, 120 rpm for 16–20 h. After incubation, suspensions were removed, log10 diluted, and plated on Trypticase Soya Agar with phosphatidylcholine and Tween 80 to determine minimum bactericidal or fungicidal concentration (MBC or MFC). […] Geometric mean MIC of the peptoids were calculated to evaluate the broad overview of antimicrobial activity across the pathogens.
(§2) The therapeutic indices (TIs) of the compounds were calculated with the use of following formula: […]

MBL-producing bacteria = test: Geometric mean MIC, therapeutic index and selectivity ratio, MBL-producing bacteria; assay type: cell-based
Description: as §1
The test was performed as per the manufacturer’s instructions. Briefly, the strips were applied to a lawn culture of bacteria maintained at 1.5 × 10^8 CFU ml^−1 on Mueller–Hinton agar (Oxoid, UK) and incubated for 20 h at 37°C.
as §2

[2] = test system: horse red blood cells (RBCs); test: Haemolysis assay; assay type: cell-based
Description: The haemolytic activity of the peptidomimetics was performed to determine mammalian cell safety. This assay used horse red blood cells (RBCs) (Sigma–Aldrich, USA) as described previously (Willcox et al. [2008], Chongsiriwatana et al. [2017], Yasir et al. [2019b]). RBCs were washed three times with PBS at 470 g for 5 min. Peptoids (0.5–250 μg ml^−1) were prepared in PBS and added to washed RBCs, then incubated at 37°C for 4 h. After incubation, cells were centrifuged at 1057 g for 10 min, and the supernatant’s OD at 540 nm was measured for lysis. PBS-only RBCs served as the negative control (no haemolysis), and Milli-Q water-treated RBCs as the positive control (100% lysis). Percent haemolysis was calculated as: (ODT − ODNC)/(ODPC − ODNC) × 100, where ODT, ODNC, and ODPC are the absorbances of the test, negative, and positive controls, respectively. This experiment was performed in triplicate.

C. auris strains = settings: two C. auris strains
Description: as §1, §2

[3] = test system: MBL phenotypes of A. baumannii; settings: MBL phenotypes of A. baumannii
Description: Briefly, bacteria were suspended in cation-adjusted Mueller–Hinton broth (CAMHB; Oxoid, UK) for antibiotics, or MHB (Oxoid, UK) for peptidomimetics to obtain 5 × 10^5 colony forming unit (CFU) ml^−1. […] Positive controls contained only microbes, and blanks contained only media. Microbial suspensions (100 µl) were added to wells, plates wrapped, and incubated at 37°C, 120 rpm for 16–20 h. […] Geometric mean MIC of the peptoids were calculated to evaluate the broad overview of antimicrobial activity across the pathogens.

[4] = CBS 12 373, RPMI 1640 with MOPS, 5 × 10^3 CFU ml^−1, ≥90% reduction (≥50% for fluconazole)
[5] = CBS 10 913, RPMI 1640 with MOPS, 5 × 10^3 CFU ml^−1, ≥90% reduction (≥50% for fluconazole)
[6] = horse RBCs in PBS, 37°C, 4 h, value in brackets
[7] = horse RBCs in PBS, 37°C, 4 h, OD 540 nm, triplicate, best fit curve

Compound	MIC against C. auris (C. auris CBS12373; [4])	MIC against C. auris (C. auris CBS12373; CBS12373)	Geometric mean MIC, all bacteria [1]	Geometric mean MIC, all bacteria ([1]; value in brackets)	Geometric mean MICMBL (MBL-producing bacteria)	HD10 (10% haemolytic dose) [2]	HD50 (50% haemolytic dose) [2]	HD10 (10% haemolytic dose) ([2]; red cells of horse, 4 h)	HD50 (50% haemolytic dose) ([2]; red cells of horse, 4 h)	MIC against C. auris (C. auris CBS10913; [5])	MIC against C. auris (C. auris CBS10913; CBS10913)	Geometric mean MICCA (C. auris strains)	HD10 (10% haemolytic dose) [2, 6]	HD50 (50% haemolytic dose) [2, 6]	HD10 (10% haemolytic dose) [2, 7]	HD50 (50% haemolytic dose) [2, 7]	further results
CCCCCCCCCCCCCNCC(=O)N(CCCCN)CC(=O)N(CC(=O)N(CC(=O)N(CCCCN)CC(=O)N(CCCCN)CC(N)=O)[C@@H](C)c1ccccc1)[C@@H](C)c1ccccc1 [TM15] (H-[N(tridecyl)Gly][Nlys][Nspe][Nspe][Nlys][Nlys]-NH2)	3.9 µg/mL	4.0 µM	32.2 µg/mL	33.4 µM	52.6 µg/mL	24.5 µmol/L	89.7 µmol/L	23.6 µg/mL	86.4 µg/mL	250 µg/mL	259.6 µM	–	–	–	–	–	Fold increase in geometric mean MIC relative to TM8 ([1]; bacteria): 4 fold
C[C@@H](c1ccccc1)N(CC(N)=O)C(=O)CN(C(=O)CN(CCCCN)C(=O)CN(C(=O)CN(C(=O)CN(CCCCN)C(=O)CN(C(=O)CN(C(=O)CN(CCCCN)C(=O)CN(C(=O)CN(C(=O)CNCCCCN)[C@@H](C)c1ccccc1)[C@@H](C)c1ccccc1)[C@@H](C)c1ccccc1)[C@@H](C)c1ccccc1)[C@@H](C)c1ccccc1)[C@@H](C)c1ccccc1)[C@@H](C)c1ccccc1 [TM1] (H-[Nlys][Nspe][Nspe][Nlys][Nspe][Nspe][Nlys][Nspe][Nspe][Nlys][Nspe][Nspe]-NH2)	3.9 µg/mL	2.1 µM	13.0 µg/mL	7.2 µM	11.0 µg/mL	–	–	8 µg/mL	44.8 µg/mL	15.6 µg/mL	8.6 µM	7.8 µg/mL	4.4 µmol/L	24.6 µmol/L	–	–	MIC [3]: ≤ 7.8 µg/mL
C[C@@H](c1ccc(Br)cc1)N(CC(=O)N(CCCCN)CC(=O)N(CC(=O)N(CC(=O)N(CCCCN)CC(N)=O)[C@@H](C)c1ccc(Br)cc1)[C@@H](C)c1ccccc1)C(=O)CN(C(=O)CNCCCCN)[C@@H](C)c1ccccc1 [TM12] (H-[Nlys][Nspe][Nspe(4-Br)][Nlys][Nspe][Nspe(4-Br)][Nlys]-NH2)	3.9 µg/mL	3.2 µM	31.2 µg/mL	26.0 µM	62.5 µg/mL	66.4 µmol/L	212.6 µmol/L	80 µg/mL	> 256 µg/mL	62.5 µg/mL	51.9 µM	15.6 µg/mL	–	–	–	–	Fold increase in geometric mean MIC relative to TM4 ([1]; bacteria): 3 fold
C[C@@H](c1ccc(Br)cc1)N(CC(N)=O)C(=O)CN(C(=O)CN(CCCCN)C(=O)CN(C(=O)CN(C(=O)CNCCCCN)[C@@H](C)c1ccccc1)[C@@H](C)c1ccc(Br)cc1)[C@@H](C)c1ccccc1 [TM2] (H-[Nlys][Nspe][Nspe(4-Br)][Nlys][Nspe][Nspe(4-Br)]-NH2)	3.9 µg/mL	3.6 µM	26.1 µg/mL	24.2 µM	28.7 µg/mL	18.6 µmol/L	59.5 µmol/L	20 µg/mL	64 µg/mL	31.25 µg/mL	29 µM	11.1 µg/mL	–	–	–	–	–
C[C@@H](c1ccc(Br)cc1)N(CC(=O)N(CCCCN)CC(=O)N(CC(=O)N(CC(=O)N(CCCCN)CC(N)=O)[C@@H](C)c1ccc(Br)cc1)[C@@H](C)c1ccc(Br)cc1)C(=O)CN(C(=O)CNCCCCN)[C@@H](C)c1ccc(Br)cc1 [TM14] (H-[Nlys][Nspe(4-Br)][Nspe(4-Br)][Nlys][Nspe(4-Br)][Nspe(4-Br)][Nlys]-NH2)	3.9 µg/mL	2.9 µM	19.9 µg/mL	14.6 µM	24.1 µg/mL	7.0 µmol/L	17.6 µmol/L	9.6 µg/mL	24 µg/mL	15.6 µg/mL	11.5 µM	7.8 µg/mL	–	–	–	–	–
TLISWIKNKRKQRPRVSRRRRRRGGRRRR [Melimine]	3.9 µg/mL	–	132.8 µg/mL	35.1 µM	162.1 µg/mL	–	–	–	–	125 µg/mL	–	22.1 µg/mL	> 67.6 µmol/L	> 67.7 µmol/L	> 256 µg/mL	> 256 µg/mL	MIC against C. auris (C. auris CBS12373; CBS 12 373, value in brackets): 1.03 µM; MIC against C. auris (C. auris CBS10913; CBS 10 913, value in brackets): 33.0 µM
KNKRKRRRRRRGGRRRR [Mel4]	3.9 µg/mL	–	149.8 µg/mL	63.8 µM	162.1 µg/mL	–	–	–	–	125 µg/mL	–	22.1 µg/mL	> 109 µmol/L	> 109 µmol/L	> 256 µg/mL	> 256 µg/mL	–
C[C@@H](c1ccccc1)N(CC(N)=O)C(=O)CN(CCCCN)C(=O)CN(C(=O)CN(C(=O)CN(CCCCN)C(=O)CN(C(=O)CN(C(=O)CN(CCCCN)C(=O)CN(C(=O)CN(C(=O)CNCCCCN)[C@@H](C)c1ccccc1)[C@@H](C)c1ccccc1)[C@@H](C)c1ccccc1)[C@@H](C)c1ccccc1)[C@@H](C)c1ccccc1)[C@@H](C)c1ccccc1 [TM6] (H-[Nlys][Nspe][Nspe][Nlys][Nspe][Nspe][Nlys][Nspe][Nspe][Nlys][Nspe]-NH2)	2 µg/mL	–	17.6 µg/mL	10.6 µM	18.6 µg/mL	–	–	–	–	31.25 µg/mL	–	7.9 µg/mL	26.1 µmol/L	> 154.4 µmol/L	43.2 µg/mL	> 256 µg/mL	MIC against C. auris (C. auris CBS12373; CBS 12 373, value in brackets): 1.2 µM; MIC against C. auris (C. auris CBS10913; CBS 10 913, value in brackets): 18.8 µM

Source: paper PMC11879280, “Antimicrobial activity of peptoids against Metallo-β-lactamase-producing Klebsiella pneumoniae, Acinetobacter baumannii, Pseudomonas aeruginosa, and other WHO priority pathogens, including Candida auris” (Journal of Applied Microbiology, 2025)
